Laboratory results from PubChem BioAssay AID179 (DTP/NCI, 2004).
The source made the active and inactive calls.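 The calls were made as follows: active = compounds giving half or more protection of infected cells from virus-caused growth loss, again on retest; inactive = the rest.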

Test system: CEM cells HIV-1 protection, formazan growth assay
Experiment: NCI AIDS Antiviral Assay
Conditions: for IC50: measured here: growth of uninfected CEM cells
How it was run: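 Steps: treat uninfected and HIV-1-infected human CEM cells at five drug levels; quantify growth by soluble formazan; retest any compound reaching 50% protection; classify actives from the retest.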

Question: How did the EC50 turn out when `COC(=O)N1CCc2c(nc(N(C)CCO)[nH]c2=O)C1` was run?
Answer: > 891 µM

Question: And the IC50?
Answer: 708 µM

Question: For `CCNc1cc2oc(=O)cc(C)c2cc1C`, which EC50 is on record?
Answer: > 33.1 µM

Question: What about the IC50 of the same compound?
Answer: > 33.1 µM

Question: With `CC1(c2ccc3ccccc3c2)OC(=O)c2ccccc21` (stereo not given) as the compound, how does the outcome read?
Answer: inactive

Question: Which results are given for `OCC(O)C(O)C(O)c1nc2ccccc2s1` (stereo not given)?
Answer: EC50: > 977 µM; IC50: 120 µM

Question: What does the source list for `O=[N+]([O-])c1ccc(-c2noc(-c3ccc(Cl)cc3)c2C2=NCCCN2)cc1`?
Answer: EC50: > 35.5 µM; IC50: > 35.5 µM

Question: `N=c1c2c(-c3ccccc3)c[nH]c2ncn1N` was tested. Which EC50 did it give?
Answer: > 200 µM

Question: And the IC50?
Answer: > 200 µM

Question: For `COc1ccc(/C(=N/O)c2ccccc2-c2nc3ccccc3c(=O)n2-c2ccc(S(=O)(=O)Nc3ncccn3)cc2)cc1C`, which EC50 is on record?
Answer: > 200 µM

Question: And the IC50?
Answer: 49 µM

Question: For `CC(C)(C)N=c1n(C(C)(C)C)oc(=O)n1-c1ccccc1`, which EC50 is on record?
Answer: > 50.1 µM

Question: And the IC50?
Answer: > 50.1 µM

Question: For `O=c1[nH]c2ccc([N+](=O)[O-])cc2nc1/C(=N/Nc1ccccc1)C(O)c1ccco1` (stereo not given), which EC50 is on record?
Answer: > 437 µM

Question: And the IC50?
Answer: 275 µM

Question: With `CCO/C=C/C(C)C1(C(=O)OCC)CCCCC1=O` (stereo not given) as the compound, how does the EC50 read?
Answer: > 97.7 µM

Question: And the IC50?
Answer: > 97.7 µM

Question: `CCOC(=O)NC(Nc1ccc(F)c(F)c1)(C(=O)OCC)C(F)(F)F` (stereo not given) was tested. Which EC50 did it give?
Answer: > 200 µM

Question: And the IC50?
Answer: > 200 µM

Question: `Cc1nc2c(s/c(=N\N)n2-c2ccccc2)c(=O)[nH]1` was tested. Which EC50 did it give?
Answer: > 36.3 µM

Question: And the IC50?
Answer: > 36.3 µM

Question: With `Cc1nnc2sc(Cl)nn12` as the compound, how does the EC50 read?
Answer: > 200 µM

Question: What about the IC50 of the same compound?
Answer: 6.17 µM

Question: What does the source list for `CC1=C(C(=O)Nc2ccccc2)C(c2ccc(C)o2)C(C#N)=C(SCc2ccccc2)N1` (stereo not given)?
Answer: EC50: > 200 µM; IC50: 24 µM

Question: With `CCc1c(O)n(Cc2ccccc2)c(=S)n(Cc2nc3ccccc3[nH]2)c1=O` as the compound, how does the EC50 read?
Answer: > 200 µM

Question: And the IC50?
Answer: > 200 µM

Question: Which EC50 does the source give for `Cc1cccc(C)c1NC(=O)C(=O)C(C#N)c1ccccc1Cl` (stereo not given) here?
Answer: > 759 µM

Question: And the IC50?
Answer: > 759 µM

Question: Which outcome does the source give for `c1cc2c(s1)CCC/C2=N\N=C1/CCCc2sccc21` here?
Answer: inactive

Question: With `COC(=O)n1c(C)c(C=O)c2ccc(OC)cc21` as the compound, how does the EC50 read?
Answer: > 200 µM

Question: What about the IC50 of the same compound?
Answer: 34.7 µM

Question: What does the source list for `Cc1cccc(C2(Br)C(=O)c3ccccc3C2=O)c1`?
Answer: EC50: > 200 µM; IC50: 195 µM

Question: For `COC(c1ccc(C(C)(C)C)cc1)(c1ccc(C(C)(C)C)cc1)c1cc(C(O)(c2cc(C(OC)(c3ccc(C(C)(C)C)cc3)c3ccc(C(C)(C)C)cc3)c(C)cc2C)c2cc(C(OC)(c3ccc(C(C)(C)C)cc3)c3ccc(C(C)(C)C)cc3)c(C)cc2C)c(C)cc1C`, which outcome is on record?
Answer: inactive

Question: Which results are given for `COc1ccc(/C=C/C(=O)c2sc(N)nc2C)cc1`?
Answer: EC50: > 912 µM; IC50: 479 µM

Question: `CO/C(N)=C(\C#N)N=Cc1cccnc1` was tested. Which EC50 did it give?
Answer: > 200 µM

Question: And the IC50?
Answer: > 200 µM

Question: With `O=[C]=[Fe+].O=[C]=[Fe].[C-]1=CCC=C1.[CH-]=O.[CH-]=O.c1cc[cH-]c1` as the compound, how does the EC50 read?
Answer: > 200 µM

Question: And the IC50?
Answer: 21.4 µM

Question: `COC(=O)[C@H]1COC(=O)N1` was tested. Which EC50 did it give?
Answer: > 200 µM

Question: And the IC50?
Answer: > 200 µM

Question: How did the EC50 turn out when `CCCN(CCC)c1cc2c(cc1F)c(=O)c(C(=O)O)cn2-c1ccc(N2CCN(C)CC2)cn1` was run?
Answer: > 200 µM

Question: And the IC50?
Answer: 14.8 µM

Question: For `COc1ccc(S(=O)(=O)O)cc1NS(=O)(=O)c1ccc(C)cc1`, which EC50 is on record?
Answer: > 200 µM

Question: And the IC50?
Answer: > 200 µM

Question: With `CC1OC(n2cc(C(F)(F)F)c(=O)[nH]c2=O)C=CC1O` (stereo not given) as the compound, how does the EC50 read?
Answer: > 851 µM

Question: And the IC50?
Answer: 148 µM

Question: What does the source list for `Cc1c(O)nc(-n2[nH]c3c(c2=O)CCCC3)[nH]c1=O`?
Answer: EC50: > 200 µM; IC50: > 200 µM

Question: For `CNC(=S)OCCC(C)CCCC(C)C` (stereo not given), which outcome is on record?
Answer: inactive

Question: What does the source list for `COc1cc(NCCN=C(N)NC#N)c2ncccc2c1`?
Answer: EC50: > 126 µM; IC50: 89.1 µM

Question: How did the EC50 turn out when `CC1=Nc2ccc(Cl)cc2N=C(C)C1` was run?
Answer: > 200 µM

Question: And the IC50?
Answer: 155 µM

Question: Which results are given for `Cn1c(=O)cn[nH]c1=O`?
Answer: EC50: > 200 µM; IC50: > 200 µM

Question: How did the EC50 turn out when `Cc1cc2oc(=O)[nH]c(=S)c2c(C)c1C` was run?
Answer: > 17 µM

Question: And the IC50?
Answer: > 17 µM

Question: With `Brc1ccc(-c2[nH]c3ccccc3c2N=Nc2ccccc2)cc1` as the compound, how does the EC50 read?
Answer: > 200 µM

Question: What about the IC50 of the same compound?
Answer: 13.5 µM

Question: With `CC1=NN2C(=O)CSC2=NC(C)(C)C1` as the compound, how does the EC50 read?
Answer: 263 µM

Question: And the IC50?
Answer: 1170 µM

Question: For `CN1CC(=O)N2Cc3ccccc3-n3cccc3C2C1` (stereo not given), which outcome is on record?
Answer: inactive

Question: Which EC50 does the source give for `C=CCCC(=O)C(=[N+]=[N-])C(=O)CCC(=O)c1ccccc1` here?
Answer: > 200 µM

Question: What about the IC50 of the same compound?
Answer: 20 µM

Question: For `CCNc1ncc2nc(CC(=O)OC)c(=O)n(CC)c2n1`, which EC50 is on record?
Answer: > 200 µM

Question: What about the IC50 of the same compound?
Answer: > 200 µM

Question: Which results are given for `O=C1OCC(Cc2ccc3c(c2)OCO3)[C@H]1Cc1ccc(O)cc1` (stereo not given in full)?
Answer: EC50: > 200 µM; IC50: 66.1 µM

Question: `Cc1ccc(NC(=O)C(=O)Cc2cccc[n+]2[O-])cc1C` was tested. Which EC50 did it give?
Answer: > 91.2 µM

Question: What about the IC50 of the same compound?
Answer: > 91.2 µM

Question: For `ON(CCc1ccccn1)CCc1ccccn1`, which EC50 is on record?
Answer: > 200 µM

Question: What about the IC50 of the same compound?
Answer: > 200 µM

Question: Which EC50 does the source give for `CCCCCCCCCCCCOP(=O)(O)OCC(N)C(=O)O` (stereo not given) here?
Answer: > 200 µM

Question: What about the IC50 of the same compound?
Answer: 10.2 µM

Question: Which EC50 does the source give for `CC(C)OP(=O)(OC(C)C)C(=Nc1ccc(N=C(NNc2ccc([N+](=O)[O-])cc2)P(=O)(OC(C)C)OC(C)C)cc1)NNc1ccc([N+](=O)[O-])cc1` here?
Answer: > 3.55 µM

Question: What about the IC50 of the same compound?
Answer: > 3.55 µM

Question: Which EC50 does the source give for `CC(C)(C)C1=C(Br)C(Br)(C(C)(C)C)OP1(=O)c1ccccc1` (stereo not given) here?
Answer: > 200 µM

Question: And the IC50?
Answer: > 200 µM

Question: What does the source list for `CSc1nnc2n(C)c3c(=O)n(C)c(=O)n(C)c3n12`?
Answer: EC50: > 200 µM; IC50: > 200 µM
